Experimental data: PMC9388600, “Uncovering the roles of dihydropyrimidine dehydrogenase in fatty-acid induced steatosis using human cellular models” (Scientific Reports, 2022)
Substitutions are numbered along the chain they refer to.

Experiments:
[1] = biological target: T1, Dihydropyrimidine dehydrogenase (DPYD) (Homo sapiens, UniProt Q12882); experiment: uracil accumulation in media of primary human hepatocytes treated with inhibitor, LC/MS/MS (endogenous DPYD); format: cell-based
T1 sequence (Q12882 4-1025): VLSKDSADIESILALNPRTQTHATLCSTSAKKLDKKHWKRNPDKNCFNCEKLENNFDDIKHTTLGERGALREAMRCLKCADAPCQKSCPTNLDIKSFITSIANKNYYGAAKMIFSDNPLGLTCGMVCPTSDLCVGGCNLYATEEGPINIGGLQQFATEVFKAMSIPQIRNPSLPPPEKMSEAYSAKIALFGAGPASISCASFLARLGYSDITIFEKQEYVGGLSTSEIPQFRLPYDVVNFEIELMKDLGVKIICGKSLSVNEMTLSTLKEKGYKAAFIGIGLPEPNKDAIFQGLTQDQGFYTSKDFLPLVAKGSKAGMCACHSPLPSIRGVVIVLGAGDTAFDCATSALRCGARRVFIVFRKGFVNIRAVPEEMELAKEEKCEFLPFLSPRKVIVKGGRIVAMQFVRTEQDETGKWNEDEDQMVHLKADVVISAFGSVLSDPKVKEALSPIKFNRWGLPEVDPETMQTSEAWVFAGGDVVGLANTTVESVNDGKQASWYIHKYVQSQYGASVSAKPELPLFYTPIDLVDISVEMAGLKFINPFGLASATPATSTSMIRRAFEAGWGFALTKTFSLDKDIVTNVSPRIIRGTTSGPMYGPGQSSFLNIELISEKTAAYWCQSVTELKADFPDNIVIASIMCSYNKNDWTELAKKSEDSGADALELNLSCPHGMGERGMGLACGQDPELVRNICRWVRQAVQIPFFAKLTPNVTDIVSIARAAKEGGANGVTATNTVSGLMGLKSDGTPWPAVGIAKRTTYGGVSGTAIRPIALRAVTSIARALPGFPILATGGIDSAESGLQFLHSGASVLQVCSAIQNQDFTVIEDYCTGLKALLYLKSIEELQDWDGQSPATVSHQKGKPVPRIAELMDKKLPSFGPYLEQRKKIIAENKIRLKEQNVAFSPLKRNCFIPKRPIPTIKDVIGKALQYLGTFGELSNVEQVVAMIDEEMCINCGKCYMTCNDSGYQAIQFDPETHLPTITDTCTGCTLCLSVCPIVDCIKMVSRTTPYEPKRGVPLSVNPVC

[2] = biological target: T1, Dihydropyrimidine dehydrogenase (DPYD); experiment: steady-state kinetics of purified enzyme, fluorometric NADPH depletion; substrate inhibition model (kcat); format: biochemical; design: recombinant wild type DPYD, expressed from pET28a(+) in E. coli
Description: steady-state kinetics of purified enzyme, fluorometric NADPH depletion; substrate inhibition model (kcat) on Dihydropyrimidine dehydrogenase (DPYD) | The kinetic measurements of DPYD were carried out by varying concentrations of uracil.

[3] = biological target: T2, Dihydropyrimidine dehydrogenase (DPYD) (Homo sapiens, UniProt Q12882, L310S); experiment: steady-state kinetics of purified mutant enzyme, fluorometric NADPH depletion; substrate inhibition model (kcat); format: biochemical
T2 construct: recombinant L310S mutant DPYD, expressed from pET28a(+) in E. coli
T2 sequence (Q12882 4-1025 L310S): T1 sequence (Q12882 4-1025) with L307S

Row | Structure (SMILES) | IC50 [1] [nM] | steady-state kinetics of purified enzyme, fluorometric NADPH depletion; substrat [2] [min⁻¹] | steady-state kinetics of purified mutant enzyme, fluorometric NADPH depletion; s [3] [min⁻¹]
1 | Oc1cc(O)c(Cl)cn1 [Gimeracil] | 56 |  | 
2 | O=c1cc[nH]c(=O)[nH]1 [uracil] |  | 65 ± 4 | 99 ± 5
